Here are results for 17 compounds from ChEMBL document CHEMBL1131597, “Discovery and development of the novel potent orally active thrombin inhibitor N-(9-hydroxy-9-fluorenecarboxy)prolyl trans-4-aminocyclohexylmethyl amide (L-372,460): coapplication of structure-based design and rapid multiple analogue synthesis on solid support” (J Med Chem, 1998).

For test [1], the target named is T1, Prothrombin (Homo sapiens, UniProt P00734). The experiment in a line: Inhibition of thrombin-catalyzed hydrolysis of a standard substrate.
The target in test [2] is T1, Prothrombin. The experiment in a line: Binding affinity towards thrombin was determined.
The next test deals with Serine protease 1 (Homo sapiens, UniProt P07477). The experiment in a line: Binding affinity towards trypsin was determined.
Serine protease 1, sequence (P07477 whole entry): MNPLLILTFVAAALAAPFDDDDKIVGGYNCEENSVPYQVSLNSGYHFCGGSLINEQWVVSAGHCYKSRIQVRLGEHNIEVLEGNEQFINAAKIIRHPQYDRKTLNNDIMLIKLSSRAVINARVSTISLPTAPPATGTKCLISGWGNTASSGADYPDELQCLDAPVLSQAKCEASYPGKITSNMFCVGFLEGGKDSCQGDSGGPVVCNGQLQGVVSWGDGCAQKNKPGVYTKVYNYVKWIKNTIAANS

Structures are written as SMILES.

For orientation: IC50 means the concentration needed to halve the response being measured. For the compound `CCCCC(CC(=O)N1CCC[C@H]1C(=O)NCC1CCC(N)CC1)c1ccccc1` (some centres not stated), the 50% inhibitory concentration (IC50) against Prothrombin [1] was 0.005 µM.
On to `NC1CCC(CNC(=O)[C@@H]2CCCN2C(=O)C2c3ccccc3-c3ccccc32)CC1` (some centres not stated), for which the IC50 on Prothrombin [1] worked out at 0.38 µM.
As a reminder, the Ki is a measure of affinity in units of concentration, obtained from inhibition or displacement. A low value points to higher affinity. With `COc1cc(C(O)C(=O)N2CCC[C@H]2C(=O)NCC2CCC(N)CC2)ccc1O` (some centres not stated), the inhibitory constant (Ki) at Prothrombin [2] stood at 0.0025 µM. The compound further had a concentration for half-maximal inhibition (IC50) against Prothrombin [1] of 0.011 µM.
For the compound `N[C@H]1CC[C@H](CNC(=O)[C@@H]2CCCN2C(=O)C2(O)c3ccccc3-c3ccccc32)CC1`, on Serine protease 1, the Ki turned out to be 0.86 µM. This compound had an IC50 on Prothrombin [1] of 0.004 µM.
At Prothrombin [1], `NC1CCC(CNC(=O)[C@@H]2CCCN2C(=O)CC2c3ccccc3-c3ccccc32)CC1` (some centres not stated) returned a concentration for half-maximal inhibition (IC50) of 0.106 µM.
At Prothrombin [1], `COc1cc(CC(=O)N2CCC[C@H]2C(=O)NCC2CCC(N)CC2)cc(OC)c1OC` (some centres not stated) returned a half-inhibitory concentration (IC50) of 0.05 µM.
In turn, `N#C/C(=C\c1ccccc1)C(=O)N1CCC[C@H]1C(=O)NCC1CCC(N)CC1` (some centres not stated) displayed an IC50 on Prothrombin [1] of 0.14 µM.
At Prothrombin [1], `NC1CCC(CNC(=O)[C@@H]2CCCN2C(=O)C2CC2(c2ccccc2)c2ccccc2)CC1` (some centres not stated) registered a half-maximal inhibitory concentration (IC50) of 0.19 µM.
`COc1ccccc1CCC(=O)N1CCC[C@H]1C(=O)NCC1CCC(N)CC1` (some centres not stated) displayed an IC50 against Prothrombin [1] of 0.23 µM.
The compound `CN1C(=O)C[C@@H](c2cccnc2)[C@@H]1C(=O)N1CCC[C@H]1C(=O)NCC1CCC(N)CC1` (some centres not stated) showed a half-inhibitory concentration (IC50) on Prothrombin [1] of 0.06 µM.
Compound `NC1CCC(CNC(=O)[C@@H]2CCCN2C(=O)C2CC(=O)N3CCc4ccccc4C23)CC1` (some centres not stated) displayed a half-maximal inhibitory concentration (IC50) against Prothrombin [1] of 0.09 µM.
With `CN[C@H](Cc1ccccc1)C(=O)N1CCC[C@H]1C(=O)NC[C@H]1CC[C@H](N)CC1`, at Prothrombin [2], the Ki was 0.0049 µM. For the same compound, on Prothrombin [1], the half-maximal inhibitory concentration (IC50) came out at 0.006 µM.
At Prothrombin [1], `NC1CCC(CNC(=O)[C@@H]2CCCN2C(=O)C(Cc2ccccc2)c2ccccc2)CC1` (some centres not stated) yielded a 50% inhibitory concentration (IC50) of 0.057 µM.
As for `NC1CCC(CNC(=O)[C@@H]2CCCN2C(=O)C23CC4CC(CC(C4)C2)C3)CC1` (some centres not stated), half-maximal inhibition on Prothrombin [1] (IC50) was put at 0.12 µM.
Turning to `NC1CCC(CNC(=O)[C@@H]2CCCN2C(=O)C2CCc3ccccc3C2)CC1` (some centres not stated), the IC50 against Prothrombin [1] came to 0.91 µM.
With `NC1CCC(CNC(=O)[C@@H]2CCCN2C(=O)C(Cc2ccc(O)cc2)c2ccccc2)CC1` (some centres not stated), on Prothrombin [2], the Ki turned out to be 0.0025 µM. At Prothrombin [1], this compound gave an IC50 of 0.01 µM.
Compound `NC1CCC(CNC(=O)[C@@H]2CCCN2C(=O)C2COc3ccccc3O2)CC1` (some centres not stated) yielded a Ki on Prothrombin [2] of 0.075 µM. This compound also showed an IC50 against Prothrombin [1] of 0.1 µM.
